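A five-concentration, 48-hour dose response in 96-well plates underlies each endpoint, interpolated linearly between surrounding concentrations. At the GI50, growth is halved. TGI is the concentration that stops growth completely.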
Assays:
Experiment in all cases: growth of human tumour cells (NCI), 48 h
HCT-15 colon = system: HCT-15 colon
K-562 leukemia = system: K-562 leukemia
MDA-MB-435 = system: MDA-MB-435
TK-10 renal = system: TK-10 renal
PC-3 prostate = system: PC-3 prostate
SW-620 colon = system: SW-620 colon
MDA-MB-231 breast = system: MDA-MB-231 breast
SK-OV-3 ovarian = system: SK-OV-3 ovarian
EKVX NSCLC = system: EKVX NSCLC
DU-145 prostate = system: DU-145 prostate

## NCCCn1c2c(c3ccccc3c1=O)C(=O)c1cc3c(cc1-2)OCO3
HCT-15 colon
  GI50: 0.101 µM
  TGI: 0.882 µM
K-562 leukemia
  GI50: 0.2 µM
  TGI: 4.23 µM
MDA-MB-435
  GI50: 1.43 µM
  TGI: 8.1 µM
TK-10 renal
  TGI: 4.17 µM
PC-3 prostate
  GI50: 1.22 µM
  TGI: 7.41 µM
SW-620 colon
  GI50: 0.111 µM
  TGI: 2.35 µM
MDA-MB-231 breast
  GI50: 0.72 µM
  TGI: 4.54 µM
SK-OV-3 ovarian
  GI50: 1.93 µM
  TGI: 13 µM
EKVX NSCLC
  GI50: 1.23 µM
  TGI: 4.79 µM
DU-145 prostate
  GI50: 0.137 µM
  TGI: 0.638 µM

## CS(=O)(=O)c1ccc(Oc2nccc(-c3c(-c4ccc(F)cc4)ncn3C3CCNCC3)n2)cc1
HCT-15 colon
  GI50: > 25 µM
  TGI: > 25 µM
K-562 leukemia
  GI50: > 9.38 µM
  TGI: > 14.9 µM
MDA-MB-435
  GI50: > 25 µM
  TGI: > 25 µM
TK-10 renal
  GI50: > 25 µM
  TGI: > 25 µM
PC-3 prostate
  GI50: > 25 µM
  TGI: > 25 µM
SW-620 colon
  GI50: > 25 µM
  TGI: > 25 µM
MDA-MB-231 breast
  GI50: > 25 µM
  TGI: > 25 µM
SK-OV-3 ovarian
  GI50: > 25 µM
  TGI: > 25 µM
EKVX NSCLC
  GI50: > 25 µM
  TGI: > 25 µM
DU-145 prostate
  GI50: > 25 µM
  TGI: > 25 µM

## Cc1ccc(C)c(-n2c(-c3ccc(Br)cc3)csc2=NC(=O)c2ccccc2F)c1
HCT-15 colon
  GI50: > 100 µM
  TGI: > 100 µM
K-562 leukemia
  GI50: 3.47 µM
  TGI: > 100 µM
MDA-MB-435
  GI50: > 100 µM
  TGI: > 100 µM
TK-10 renal
  GI50: > 100 µM
  TGI: > 100 µM
PC-3 prostate
  GI50: 3.29 µM
  TGI: > 100 µM
SW-620 colon
  GI50: > 100 µM
  TGI: > 100 µM
MDA-MB-231 breast
  GI50: > 100 µM
  TGI: > 100 µM
SK-OV-3 ovarian
  GI50: > 100 µM
  TGI: > 100 µM
EKVX NSCLC
  GI50: > 100 µM
  TGI: > 100 µM
DU-145 prostate
  GI50: > 100 µM
  TGI: > 100 µM

## C=C1C(=O)OC2C1C(OC(=O)/C(C)=C/C)CC(O)(CCl)C1C(OC(C)=O)C=C(C)C21O (centres undefined)
HCT-15 colon
  TGI: 21.7 µM
K-562 leukemia
  TGI: > 37.4 µM
MDA-MB-435
  TGI: > 51.2 µM
TK-10 renal
  TGI: 27.3 µM
PC-3 prostate
  TGI: 30.8 µM
SW-620 colon
  TGI: 14 µM
MDA-MB-231 breast
  TGI: 38.1 µM
SK-OV-3 ovarian
  TGI: > 100 µM
EKVX NSCLC
  TGI: 24.7 µM
DU-145 prostate
  TGI: 29 µM

## COc1cc2c3c(n(CCCO)c(=O)c2cc1OC)-c1cc2c(cc1C3=O)OCO2
HCT-15 colon
  GI50: 33.4 µM
  TGI: > 100 µM
K-562 leukemia
  GI50: 6.96 µM
  TGI: > 47 µM
MDA-MB-435
  GI50: 31.4 µM
  TGI: > 100 µM
TK-10 renal
  GI50: 34.7 µM
  TGI: > 100 µM
PC-3 prostate
  GI50: > 24.7 µM
  TGI: > 81.7 µM
SW-620 colon
  GI50: 4.75 µM
  TGI: > 100 µM
MDA-MB-231 breast
  GI50: 23.4 µM
  TGI: > 76.6 µM
SK-OV-3 ovarian
  GI50: 55.3 µM
  TGI: > 100 µM
EKVX NSCLC
  GI50: 54.7 µM
  TGI: > 100 µM
DU-145 prostate
  GI50: 3.22 µM
  TGI: > 44.3 µM

## Nc1nc(SCC(=O)O)[nH]c(=O)c1N
HCT-15 colon
  TGI: > 100 µM
K-562 leukemia
  TGI: 36.9 µM
MDA-MB-435
  TGI: > 100 µM
TK-10 renal
  TGI: > 100 µM
PC-3 prostate
  TGI: > 100 µM
SW-620 colon
  TGI: > 100 µM
MDA-MB-231 breast
  TGI: > 100 µM
SK-OV-3 ovarian
  TGI: > 100 µM
EKVX NSCLC
  TGI: > 100 µM
DU-145 prostate
  TGI: > 100 µM

## COC(=O)/C=C1\SC(=Nc2ccc(C(F)(F)F)cc2)N(CCc2c[nH]c3ccccc23)C1=O
HCT-15 colon
  GI50: 1.38 µM
  TGI: 2.95 µM
K-562 leukemia
  GI50: 1.66 µM
  TGI: 6.42 µM
MDA-MB-435
  GI50: 1.56 µM
  TGI: 3.03 µM
TK-10 renal
  GI50: 2.06 µM
  TGI: 3.94 µM
PC-3 prostate
  GI50: 1.62 µM
  TGI: 3.32 µM
SW-620 colon
  GI50: 1.57 µM
  TGI: 3.29 µM
MDA-MB-231 breast
  GI50: 1.5 µM
  TGI: 2.87 µM
SK-OV-3 ovarian
  GI50: 2.05 µM
  TGI: 4.06 µM
EKVX NSCLC
  GI50: 1.86 µM
  TGI: 3.81 µM
DU-145 prostate
  GI50: 1.87 µM
  TGI: 4.21 µM

## C=C(CN1CCc2ccccc2C1)c1ccc(/C=C/C(=O)Nc2ccccc2N)cc1
HCT-15 colon
  GI50: 1.69 µM
  TGI: 62.9 µM
K-562 leukemia
  GI50: 5.49 µM
  TGI: > 100 µM
MDA-MB-435
  GI50: 4.89 µM
  TGI: 80.7 µM
TK-10 renal
  GI50: 3.88 µM
  TGI: 26.9 µM
PC-3 prostate
  GI50: 4.05 µM
  TGI: > 100 µM
SW-620 colon
  GI50: 5.07 µM
  TGI: > 100 µM
MDA-MB-231 breast
  GI50: 4.36 µM
  TGI: 48.3 µM
SK-OV-3 ovarian
  GI50: 66 µM
  TGI: > 100 µM
EKVX NSCLC
  GI50: 10.4 µM
  TGI: > 100 µM
DU-145 prostate
  GI50: 5.98 µM
  TGI: > 100 µM

## O=C1C(Cl)=C(Oc2ccccc2)C(=O)c2ccccc21
HCT-15 colon
  GI50: 12.1 µM
  TGI: 31.5 µM
K-562 leukemia
  GI50: 3.17 µM
  TGI: > 100 µM
MDA-MB-435
  GI50: 8.06 µM
  TGI: 24.1 µM
TK-10 renal
  GI50: 1.87 µM
  TGI: 3.41 µM
PC-3 prostate
  GI50: 4.34 µM
  TGI: 20.9 µM
SW-620 colon
  GI50: 1.81 µM
  TGI: 3.57 µM
MDA-MB-231 breast
  GI50: 6.51 µM
  TGI: 21.1 µM
SK-OV-3 ovarian
  GI50: 6.51 µM
  TGI: 23.6 µM
EKVX NSCLC
  GI50: 4.77 µM
  TGI: 24 µM
DU-145 prostate
  GI50: 16.2 µM
  TGI: 31 µM

## COc1cc(/C=C2\CC(C)CC3C2=NN(c2ccccc2)C3c2cc(OC)c(OC)c(OC)c2)cc(OC)c1OC (centres undefined)
HCT-15 colon
  GI50: 11.2 µM
  TGI: 25.6 µM
K-562 leukemia
  GI50: 6.4 µM
  TGI: > 100 µM
MDA-MB-435
  GI50: 8.53 µM
  TGI: 47.7 µM
TK-10 renal
  GI50: 24.3 µM
  TGI: 93.3 µM
PC-3 prostate
  GI50: 16.9 µM
  TGI: > 100 µM
SW-620 colon
  GI50: 10.7 µM
  TGI: 22.5 µM
MDA-MB-231 breast
  GI50: 14.4 µM
  TGI: 71 µM
SK-OV-3 ovarian
  GI50: 9.14 µM
  TGI: 41 µM
EKVX NSCLC
  GI50: 13.5 µM
  TGI: > 100 µM
DU-145 prostate
  GI50: 15.4 µM
  TGI: 45.7 µM

Reference: PubChem BioAssay (NCI)
